Experimental data published in ChEMBL document CHEMBL1201862, “PubChem BioAssay data set” (2004).
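Method: 48-hour compound exposure of cells in 96-well plates, five concentrations, linear interpolation of endpoints. Here, GI50 denotes the concentration required for 50% inhibition of growth.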 Activity calls are given as the source filed them. Cut-off read from the data, not from the text of the source: active = GI50 up to about 1.1 µM and inactive = higher.

What was measured:
Experiment in all cases: NCI tumour cell line growth inhibition, 48 h
BT-549 = system: BT-549
EKVX = system: EKVX
HCC 2998 = system: HCC 2998
Hs-578T = system: Hs-578T
LOX IMVI = system: LOX IMVI
MCF7 = system: MCF7
MDA-MB-435 = system: MDA-MB-435
MDA-N = system: MDA-N
NCI/ADR-RES = system: NCI/ADR-RES
SR = system: SR
SW-620 = system: SW-620
UACC-257 = system: UACC-257
786-0 = system: 786-0
COLO 205 = system: COLO 205
T47D = system: T47D

Measured: GI50

CC(=O)OCC1OC(OCCCCCCO)C(OC(C)=O)C(OC(C)=O)C1OC(C)=O (stereo not drawn)
inactive: BT-549 > 100 µM | EKVX > 100 µM | HCC 2998 > 100 µM | Hs-578T > 100 µM | LOX IMVI > 100 µM | MCF7 > 100 µM | MDA-MB-435 > 100 µM | MDA-N > 100 µM | NCI/ADR-RES > 100 µM | SR > 100 µM | SW-620 > 100 µM | UACC-257 > 100 µM

CC1(c2ccccc2)N=c2[nH]cnc2=C(C(N)=O)N1 (stereo not drawn)
inactive: 786-0 > 100 µM | COLO 205 > 100 µM | EKVX > 100 µM | HCC 2998 > 100 µM | Hs-578T > 100 µM | LOX IMVI > 100 µM | MCF7 > 100 µM | MDA-MB-435 > 100 µM | MDA-N > 100 µM | NCI/ADR-RES > 100 µM | SR > 100 µM | SW-620 > 100 µM | T47D > 100 µM | UACC-257 > 100 µM

COc1ccc2c(c1)CCN=C2Cc1cc(OC)c(OC)cc1CCCl
inactive: BT-549 > 100 µM | COLO 205 58.7 µM | EKVX > 100 µM | HCC 2998 30.5 µM | Hs-578T 22.1 µM | LOX IMVI 31.9 µM | MCF7 52.2 µM | MDA-MB-435 52 µM | MDA-N 53.8 µM | NCI/ADR-RES > 100 µM | SR 94.6 µM | SW-620 > 100 µM | T47D 53.1 µM | UACC-257 45.4 µM

N#CC1(C#N)C(=O)c2ccncc2C1=O
inactive: BT-549 > 100 µM | COLO 205 > 100 µM | EKVX > 100 µM | HCC 2998 > 100 µM | Hs-578T > 100 µM | MCF7 > 100 µM | MDA-MB-435 > 100 µM | MDA-N > 100 µM | NCI/ADR-RES 63.7 µM | SR > 100 µM | SW-620 > 100 µM | T47D > 100 µM | UACC-257 > 100 µM

C=C(C)[C@@H]1CCC2=C[C@H](CC(C)=CC3=CC(C)=C(O3)[C@@H]1OC)OC2=O
inactive: BT-549 51.6 µM | COLO 205 > 100 µM | EKVX 59.2 µM | HCC 2998 > 100 µM | Hs-578T 33.6 µM | MCF7 38.8 µM | MDA-MB-435 > 100 µM | MDA-N > 100 µM | NCI/ADR-RES 90.4 µM | SR > 100 µM | SW-620 > 100 µM | T47D > 100 µM | UACC-257 > 100 µM

CCOC(=O)c1ccc(N(CCOS(=O)(=O)c2ccc(C)cc2)CCOS(=O)(=O)c2ccc(C)cc2)cc1
inactive: BT-549 > 100 µM | COLO 205 > 100 µM | EKVX > 100 µM | HCC 2998 > 100 µM | Hs-578T > 100 µM | LOX IMVI > 100 µM | MCF7 7.05 µM | MDA-MB-435 > 100 µM | MDA-N > 100 µM | NCI/ADR-RES > 100 µM | SW-620 1.95 µM | UACC-257 > 100 µM

CCOC(=O)CC(=O)CSc1c(-c2ccccc2)c(=O)n(-c2ccccc2)c(=S)n1-c1ccccc1
inactive: 786-0 > 100 µM | COLO 205 > 100 µM | EKVX > 100 µM | HCC 2998 > 100 µM | Hs-578T > 100 µM | LOX IMVI > 100 µM | MCF7 > 100 µM | MDA-MB-435 > 100 µM | MDA-N > 100 µM | NCI/ADR-RES > 100 µM | SR 95.1 µM | SW-620 > 100 µM | T47D > 100 µM | UACC-257 > 100 µM

Cc1ccc(Nc2n[nH]c(NS(=O)(=O)c3cc(C(=O)Nc4ccc(Cl)cc4)c(Cl)cc3S)n2)cc1
inactive: BT-549 > 100 µM | COLO 205 > 100 µM | EKVX 35 µM | Hs-578T 84.9 µM | LOX IMVI 48.4 µM | MCF7 > 100 µM | MDA-MB-435 > 100 µM | MDA-N > 100 µM | NCI/ADR-RES > 100 µM | SR > 100 µM | SW-620 > 100 µM | T47D 63.2 µM | UACC-257 > 100 µM

CN(C)C(=O)C1CCN(Cc2c[nH]c3ccccc23)CC1
inactive: 786-0 > 100 µM | BT-549 > 100 µM | COLO 205 > 100 µM | EKVX > 100 µM | Hs-578T > 100 µM | LOX IMVI > 100 µM | MCF7 > 100 µM | MDA-MB-435 > 100 µM | MDA-N > 100 µM | NCI/ADR-RES > 100 µM | SR > 100 µM | SW-620 17 µM | T47D > 100 µM | UACC-257 > 100 µM

O=[N+]([O-])c1ccc(C2Nn3c(nnc3-c3cccc([N+](=O)[O-])c3)S2)cc1 (stereo not drawn)
inactive: 786-0 > 100 µM | BT-549 > 100 µM | COLO 205 > 100 µM | EKVX > 100 µM | HCC 2998 > 100 µM | Hs-578T > 100 µM | LOX IMVI 82 µM | MCF7 44.3 µM | MDA-MB-435 51.5 µM | NCI/ADR-RES > 100 µM | SR 84.1 µM | SW-620 71.9 µM | T47D 49.4 µM | UACC-257 > 100 µM
